Consider seven compounds from ChEMBL document CHEMBL2375223, “Disulfide linked pyrazole derivatives inhibit phagocytosis of opsonized blood cells” (Bioorg Med Chem Lett, 2013).

The target of test [1] is High affinity immunoglobulin gamma Fc receptor I (Homo sapiens) (UniProt P12314). The test can be described thus: Inhibition of FCgamma receptor in human PBMC assessed as inhibition of opsonized RBC phagocytosis at 5 uM incubated for 1 hr prior to RBC addition measured after 2 hrs by monocyte monolayer assay relative to control.
Chain of High affinity immunoglobulin gamma Fc receptor I (Homo sapiens) (P12314 whole entry): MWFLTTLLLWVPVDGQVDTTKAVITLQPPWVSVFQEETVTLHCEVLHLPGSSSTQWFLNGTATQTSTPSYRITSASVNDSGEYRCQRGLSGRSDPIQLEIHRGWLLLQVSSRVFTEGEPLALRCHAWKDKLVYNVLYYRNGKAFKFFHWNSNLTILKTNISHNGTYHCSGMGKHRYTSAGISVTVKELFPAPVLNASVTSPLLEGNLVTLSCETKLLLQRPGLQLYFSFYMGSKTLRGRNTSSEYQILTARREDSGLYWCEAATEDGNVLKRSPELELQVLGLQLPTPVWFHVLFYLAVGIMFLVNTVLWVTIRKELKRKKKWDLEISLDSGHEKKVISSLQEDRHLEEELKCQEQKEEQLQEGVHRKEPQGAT
The subject of a further test is PBMC. The test can be described thus: Induction of apoptosis in human PBMC at 5 uM assessed as apoptotic index after 1 hr by Annexin V-APC/propidium iodide staining-based FACS analysis relative to IVIG. Type of test: functional. For orientation: In flow cytometry, cells or beads pass a laser one at a time.
Test [2] concerns the target High affinity immunoglobulin gamma Fc receptor I (Homo sapiens) (UniProt P12314). The test can be described thus: Inhibition of FCgamma receptor in human PBMC assessed as inhibition of opsonized RBC phagocytosis at 1 mM incubated for 1 hr prior to RBC addition measured after 2 hrs by monocyte monolayer assay relative to control.

Each structure is given as a SMILES string. Active and inactive are the calls of the source. No cut-off for these calls is given here.

With `Cc1nn(-c2ccccc2)c(S)c1C(=O)c1ccno1`, the inhibition entry in test [1] is “inactive”.
In the case of `Cc1nn(-c2ccccc2)c(SSc2c(C(=O)N3CCCCC3)c(C)nn2-c2ccccc2)c1C(=O)N1CCCCC1`, the “fold change (FC)” value with PBMC is 1.87. The inhibition in test [1] amounted to 34%.
Consider `Cc1nn(-c2ccccc2)c(S)c1C(=O)c1ccccc1`, for which, in test [2], the inhibition entry is “inactive”. For the same compound, in the test on PBMC, the “fold change (FC)” value stood at 1.29. In test [1], the inhibition was found to be 0%.
`Cc1nn(-c2ccccc2)c(SSc2c(C(=O)c3cccs3)c(C)nn2-c2ccccc2)c1C(=O)c1cccs1`: the “fold change (FC)” value in the test with PBMC is reported as 0.69. In test [1], the inhibition came to 19%.
On the same counts, the results for `Cc1nn(-c2ccccc2)c(SSc2c(C(=O)c3ccccc3)c(C)nn2-c2ccccc2)c1C(=O)c1ccccc1` are 1.04 and 22%.
On the same counts, the results for `Cc1nn(-c2ccccc2)c(SSc2c(C(=O)N3CCOCC3)c(C)nn2-c2ccccc2)c1C(=O)N1CCOCC1` are 1.88 and 20%.
On the same counts, the results for `Cc1cc(SSc2cc(C)nn2-c2ccccc2)n(-c2ccccc2)n1` are 2.78 and 43%.

The inhibition is the change of the read-out against control, counted positive when it falls.
